Measured values as given in patent US5840677A, “Boronic acid or borinic acid derivatives as enzyme stabilizers” (Novo Nordisk A/S, priority 1993, dated 1998).

Tests used:
Alcalase = biological target: T1, Alcalase (Bacillus licheniformis, UniProt P00780); test: biochemical; conditions: substrate SAAPFpNA; 0.1 M Tris-HCl pH 8.6; 25° C.; Alcalase 1×10^-10 -3×10^-10 M
T1 construct: purchased Novo Nordisk A/S
T1 sequence (P00780 106-379): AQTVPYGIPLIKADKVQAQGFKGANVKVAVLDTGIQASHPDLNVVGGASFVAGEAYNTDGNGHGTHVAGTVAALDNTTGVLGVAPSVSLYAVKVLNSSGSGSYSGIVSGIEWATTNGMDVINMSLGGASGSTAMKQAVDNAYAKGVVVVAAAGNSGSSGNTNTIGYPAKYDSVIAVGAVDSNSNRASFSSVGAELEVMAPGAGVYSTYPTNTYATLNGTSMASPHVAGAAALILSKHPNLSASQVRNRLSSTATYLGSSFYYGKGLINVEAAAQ
Text: (§1) c) Determination of Ki : The inhibition constant Ki may be determined by using standard methods, for reference see Keller et al, Biochem. Biophys. Res. Com. 176, 1991, pp.401-405; J. Bieth in Bayer-Symposium "Proteinase Inhibitors", pp. 463-469, Springer-Verlag, 1974 and Lone Kierstein Hansen in "Determination of Specific Activities of Selected Detergent Proteases using Protease Activity, Molecular Weights, Kinetic Parameters and Inhibition Kinetics", PhD-report, Novo Nordisk A/S and University of Copenhagen, 1991.
(§2) The inhibition constants Ki, for the inhibition of Alcalase and Savinase respectively, were determined using standard methods under the following conditions:
(§3) Substrate: Succinyl-Alanine-Alanine-Proline-Phenylalanine-para-nitro-anilide=SAAPFpNA(Sigma S-7388).
(§4) Buffer: 0.1 M Tris-HCl pH 8.6; 25° C.
(§5) Enzyme concentration in assay
(§6) The initial rate of substrate hydrolysis was determined at nine substrate concenterations in the range of 0.01 to 2 mM using a Cobas Fara automated spectrophotometer. The kinetic parameters Vmax and Km were determined using ENZFITTER (a non-linear regression data analysis program). kcat was calculated from the equation Vmax =kcat X[Eo ]. The concentration of active enzyme [Eo ] was determined by active site titration using tight-binding protein proteinase inhibitors. The inhibition constant Ki was calculated from plots of Km /kcat as a function of the concentration of inhibitor. The inhibitors were assumed to be 100% pure and the molar concentrations were determined using weighing numbers and molecular weights.

Savinase [1] = biological target: T2, Savinase (Lederbergia lenta, UniProt P29600); test: biochemical; parameters: species or system Bacillus; conditions: substrate SAAPFpNA; 0.1 M Tris-HCl pH 8.6; 25° C.; Savinase 1-10^-10 -3×10^-10 M
T2 construct: purchased Novo Nordisk A/S
T2 sequence (P29600 1-269): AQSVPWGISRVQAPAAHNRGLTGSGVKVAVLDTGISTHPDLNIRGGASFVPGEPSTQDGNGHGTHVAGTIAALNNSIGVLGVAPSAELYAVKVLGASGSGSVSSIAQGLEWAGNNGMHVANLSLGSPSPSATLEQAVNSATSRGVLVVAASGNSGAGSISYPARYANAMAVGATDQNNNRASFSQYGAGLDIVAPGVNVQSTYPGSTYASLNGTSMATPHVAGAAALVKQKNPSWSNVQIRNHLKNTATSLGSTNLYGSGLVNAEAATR
Text: as §1, §2, §3, §4, §5, §6

subtilisin = conditions: Keller et al, Biochem. Biophys. Res. Com. 176, 1991; cited from earlier work
Savinase [2] = biological target: T2, Savinase; test: Storage Stability Test in Liquid Detergent (improvement factor IFI, inhibition of protease); format: biochemical, Bacillus; conditions: US-type liquid detergent, 1% w/w Savinase + 1% w/w Lipolase, 0, 3, 7 and 14 days at 30° C.
Method: a) Storage Stability Test in Licuid Deterrent: Enzyme(s) and stabilizer are added to a liquid detergent formulation and stored at well defined conditions. The enzyme activity of each enzyme is determined as a function of time, e.g. after 0, 3, 7 and 14 days.
To calculate the inhibition efficiency from the storage stability date a reaction mechanism is proposed.
From these reactions three coupled differential equations are derived describing the deactivation of P, L and PI. The reaction rate constants are derived from storage stability data by the use of a parameter estimation method (Gauss-Newton with the Levenberg modification). The storage stability data give the concentration of (P+PI) and L as a function of time.
Reaction IV is excluded from the system to reduce the number of parameters thereby describing the stability of the inhibited enzyme by only one reaction rate constant (from equation V).
In all experiments there is a large surplus of inhibitor molecules compared to protease molecules, i.e. a constant concentration of inhibitor (corresponding to the added amount of inhibitor) is a reasonable assumption.
An improvement factor is thus derived: [formula] IFI measures the inhibition efficiency given by the inhibition constants KI from reaction III.
Different boronic and borinic acid derivative enzyme stabilizers were also tested in storage stability tests in liquid detergents using the method described previously under the following conditions: […]

proteolytic enzymes = conditions: prior art; cited from earlier work
[3] = stabilizer 5 mmole/kg, relative to boric acid

Ki (Alcalase) [µM] | Ki (Savinase [1]) [µM] | Improvement factor IFI (Savinase [2]; [3]) | Compound | capacity as subtilisin inhibitor (subtilisin) | inhibition of proteolytic enzymes (proteolytic enzymes) | Improvement factor IFI (Savinase [2]; reference, boric acid 160 mmole/kg)
 |  |  | COc1ccc(B(O)O)cc1 [4-methoxyphenyl] | very good inhibitors |  | 
2000 | 3000 | 12 | Cc1ccc(B(O)O)s1 [5-Methylthiophene-2-boronic acid] |  |  | 
 |  |  | OB(O)c1cc(Cl)cc(Cl)c1 [3,5-dichlorophenylboronic acid] | particularly effective |  | 
1000 | 800 |  | OB(O)c1cc2ccccc2o1 |  |  | 
2000 | 3000 | 20 | OB(O)c1cc2ccccc2s1 [Thionaphthrene-1-boronic acid] |  |  | 
 |  |  | CCCCB(O)O [butyl] | poor inhibitors |  | 
900 | 1100 | 19 | OB(O)c1cccc2c1oc1ccccc12 [Dibenzofuran-4-boronic acid] |  |  | 
900 | 1500 | 12 | OB(O)c1cccc2sc3ccccc3c12 [Dibenzothiophene-1-boronic acid] |  |  | 
2000 | 4000 |  | OB(c1ccccc1)c1ccccc1 [Diphenylborinic acid (ethanolamine complex)] |  |  | 
2000 | 2000 |  | OB(O)c1sccc1Br [3-Bromothiophene-2-boronic acid] |  |  | 
3000 | 6000 | 7 | Cc1cc(B(O)O)c(C)s1 [2,5-dimethylthiophene-3-boronic acid] |  |  | 
 |  |  | OB(O)O [Boric acid, reference compound] |  | reversibly inhibit proteolytic enzymes | 1
1100 | 1500 | 9 | OB(O)c1cccc2oc3ccccc3c12 [Dibenzofuran-1-boronic acid] |  |  | 
300 | 200 | 123 | OB(O)c1ccc(Cl)s1 [5-Chlorothiophene-2-boronic acid] |  |  | 
2000 | 3000 |  | CCc1ccc(B(O)O)o1 [5-Ethylfuran-2-boronic acid] |  |  | 
 |  |  | OB(O)CCC1CCCCC1 [2-cyclohexylethyl] | poor inhibitors |  | 
1800 | 3000 | 4 | Cc1csc(B(O)O)c1 [4-Methylthiophene-2-boronic acid] |  |  | 
 |  |  | CB(O)O [methylboronic acid] | poorest inhibitor |  | 
 |  | 190 | OB(O)c1cc2ccccc2o1 [Benzofuran-2-boronic acid] |  |  | 
400 | 200 | 124 | OB(O)c1ccc(Br)s1 [5-Bromothiophene-2-boronic acid] |  |  | 
10000 | 7000 | 32 | OB(O)c1ccoc1 [Furan-3-boronic acid] |  |  | 
3000 | 4000 | 13 | OB(O)c1ccco1 [Furan-2-boronic acid] |  |  | 
1500 | 3000 |  | CCCc1ccc(B(O)O)s1 [5-n-Propylthiophene-2-boronic acid] |  |  | 
700 | 900 | 66 | CCc1ccc(B(O)O)s1 [5-Ethylthiophene-2-boronic acid] |  |  | 
3000 | 1200 | 8 | COc1ccsc1B(O)O [3-Methoxythiophene-2-boronic acid] |  |  | 
 |  |  | acetamidobenzene boronic acid |  | superior inhibitor of proteolytic enzymes | 
2000 | 2000 | 63 | OB(O)c1ccsc1 [Thiophene-3-boronic acid] |  |  | 
2000 | 1000 | 14 | COc1ccc(B(O)O)s1 [5-Methoxythiophene-2-boronic acid] |  |  | 
 |  |  | OB(O)c1ccccc1 [phenyl] | very good inhibitors |  | 
2000 | 3000 |  | COc1ccc(B(O)O)o1 [5-Methoxyfuran-2-boronic acid] |  |  | 

Compound | Ki (Alcalase) [µM] | Ki (Savinase [1]) [µM] | Improvement factor IFI (Savinase [2]; [3]) | capacity as subtilisin inhibitor (subtilisin) | inhibition of proteolytic enzymes (proteolytic enzymes) | Improvement factor IFI (Savinase [2]; reference, boric acid 160 mmole/kg)
Picoline-2-boronic acid | 3000 | 4000 |  |  |  | 
OB(O)CCc1cccc2[nH]c3ccccc3c12 [4-Carbazole ethyl boronic acid] | 1000 | 2000 |  |  |  | 
OB(O)c1cccs1 [Thiophene-2-boronic acid] | 2000 | 2000 | 72 |  |  | 
